Consider ten compounds from US20190336489A1, “NON PEPTIDE HETEROBIVALENT MOLECULES FOR TREATING INFLAMMATORY DISEASES” (GLAXOSMITHKLINE INTELLECTUAL PROPERTY DEVELOPMENT LIMITED, priority 2017, published 2019).

What all share (format): cell-based
The target in assay [1] is T1, CCR2 (Homo sapiens, UniProt P41597).
T1 construct: expressed in transfected cells; host or cells: CHOK1
Put plainly: Antibody Dependent Cellular Cytotoxicity (ADCC) reporter assay, CCR2 target cells. The following applies: CHOK1 cells overexpressing CCR2. An excerpt:
(§1) The compounds described herein have been characterized in an ADCC reporter assay (see Section 1.2 ADCC reporter for protocol). […] Furthermore, the assay also confirms that this formed complex can engage and activate the Fc receptors on immune cells. Lastly, the assay provides both potency (EC50) and efficacy (signal to background ratio) for each compound in a dose dependant manner.
(§2) This assay has four components • 1) Heterobivalent Compound consisting of a targeting ligand and a hapten connected by a linker (ranging from 10 uM-1 pM) • 2) A hapten antibody with functional Fc domain (typical concentrations are 0.01 ug/mL-200 ug/mL) • 3) Target cells—CHOK1 cells engineered to overexpress either CCR1, CCR2, or CCR3, or CEMNKR cells engineered to overexpress CCR5 (typically 1000-20,000 cells per well) • 4) Reporter cells—Jurkat cells engineered to express FcgRIIIa (ADCC reporter assay) and with a reporter gene (luciferase) under the control of the NFAT promoter (typically 3000-75,000 cells per well)
(§3) Reagents are combined in final volume of 20 uL in 384-well tissue culture treated plated.
(§4) All components are incubated together for ˜12-18 hours. Add BioGlo Detection reagent (from Promega) to lyse the cells and provide substrate for the luciferase reporter protein. Signal is measured on a microplate reader capable of measuring luminescence. Signal:Background is calculated by dividing the signal of a test well by the signal obtained when no compound is included in the assay. EC50 calculations were done using Graphpad Prism Software, specifically a nonlinear regression curve fit (Y=Bottom+(Top−Bottom)/(1+10^((Log EC50−X)*HillSlope)))

Assay [2] has as its target T2, CCR3 (Homo sapiens, UniProt P51677).
T2 construct: expressed in transfected cells; host or cells: CHOK1
T2 sequence (P51677 1-355): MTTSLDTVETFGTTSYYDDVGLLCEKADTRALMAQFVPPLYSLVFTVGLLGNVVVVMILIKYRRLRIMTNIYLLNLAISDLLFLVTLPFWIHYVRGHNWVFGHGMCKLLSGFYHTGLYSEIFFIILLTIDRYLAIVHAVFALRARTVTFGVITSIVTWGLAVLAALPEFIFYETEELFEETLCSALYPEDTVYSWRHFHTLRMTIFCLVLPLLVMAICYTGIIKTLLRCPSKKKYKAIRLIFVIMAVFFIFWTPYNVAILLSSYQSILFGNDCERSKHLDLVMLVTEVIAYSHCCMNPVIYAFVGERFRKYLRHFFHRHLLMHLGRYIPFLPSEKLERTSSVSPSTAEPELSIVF
Put plainly: Antibody Dependent Cellular Cytotoxicity (ADCC) reporter assay, CCR3 target cells. As to conditions: for EC50 / ADCC efficacy: CHOK1 cells overexpressing CCR3; for EC50: Jurkat FcgRIIIa NFAT-luciferase reporter cells, EC50 class, read-out: ADCC potency; for ADCC efficacy: maximum signal:background (S/B).
Text: as §1, §2, §3, §4
Background: Reporter assays use an easily measured gene product as a stand-in for the process of interest.

For assay [3], the target named is T3, CCR1 (Homo sapiens, UniProt P32246).
T3 construct: expressed in transfected cells; host or cells: CHOK1
T3 sequence (P32246 1-355): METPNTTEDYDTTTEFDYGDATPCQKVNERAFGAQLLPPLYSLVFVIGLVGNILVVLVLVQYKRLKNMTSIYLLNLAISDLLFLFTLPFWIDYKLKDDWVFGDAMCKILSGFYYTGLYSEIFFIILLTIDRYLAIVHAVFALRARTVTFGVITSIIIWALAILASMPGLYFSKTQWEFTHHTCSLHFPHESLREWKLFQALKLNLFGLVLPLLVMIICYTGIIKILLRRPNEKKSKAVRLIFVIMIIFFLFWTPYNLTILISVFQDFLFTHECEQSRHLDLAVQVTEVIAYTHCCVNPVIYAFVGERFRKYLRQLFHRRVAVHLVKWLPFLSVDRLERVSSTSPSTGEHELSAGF
Put plainly: Antibody Dependent Cellular Cytotoxicity (ADCC) reporter assay, CCR1 target cells. The following applies: CHOK1 cells overexpressing CCR1; for EC50: Jurkat FcgRIIIa NFAT-luciferase reporter cells, EC50 class, read-out: ADCC potency; for ADCC efficacy: maximum signal:background (S/B).
Text: as §1, §2, §3, §4

Structures are written as SMILES. Marks after values point to notes of the source that are not given here.

T1 sequence (P41597 whole entry, species assumed): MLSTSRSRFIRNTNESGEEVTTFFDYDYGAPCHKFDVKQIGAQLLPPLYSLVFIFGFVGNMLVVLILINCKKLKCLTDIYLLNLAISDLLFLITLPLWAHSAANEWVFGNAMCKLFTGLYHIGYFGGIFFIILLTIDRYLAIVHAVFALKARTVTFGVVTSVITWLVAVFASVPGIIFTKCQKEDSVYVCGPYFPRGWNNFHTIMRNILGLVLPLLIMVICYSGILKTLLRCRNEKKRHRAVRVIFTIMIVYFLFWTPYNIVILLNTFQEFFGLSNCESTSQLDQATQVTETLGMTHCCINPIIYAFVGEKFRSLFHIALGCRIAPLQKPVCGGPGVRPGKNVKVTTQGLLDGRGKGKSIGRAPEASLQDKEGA

Consider `CC(C)(C)N1CCNC(C(=O)N2CCN(C(=O)Nc3nc(C(F)(F)F)c(Cl)s3)C(CCOC(=O)NCCOCCOCCOCCOCCOCCOCCOCCOCCOCCNc3ccc([N+](=O)[O-])cc3[N+](=O)[O-])C2)C1` (mixture of isomers) [Compound 18, 2-(4-(4-(Tert-butyl)piperazine-2-carbonyl)-1-((5-chloro-4-(trifluoromethyl)thiazol-2-yl)carbamoyl)piperazin-2-yl)ethyl (29-((2,4-dinitrophenyl)amino)-3,6,9,12,15,18,21,24,27-nonaoxanonacosyl)carbamate], for which, in assay [1] (Jurkat FcgRIIIa NFAT-luciferase reporter cells, EC50 class, read-out: ADCC potency), the EC50 was less than 1 nM. Besides, the ADCC efficacy result in assay [1] (maximum signal:background (S/B)) is on record as “+++^e (Maximum Signal:Background > 10 = +++)”. Also, in assay [2] (ADCC reporter assay), the efficacy signal result was “robust” and the potency result was “nanomolar range”.
For `CC(C)[C@@H](NC(=O)c1cccc(C(=O)NCCOCCOCCOCCOCCOCCOCCOCCOCCOCCOCCOCCNC(=O)CCCC[C@@H]2SC[C@@H]3NC(=O)N[C@@H]32)c1)C(=O)N1CCC(c2ccc(Cl)cc2)CC1` [Compound 1, N1-((R)-1-(4-(4-chlorophenyl)piperidin-1-yl)-3-methyl-1-oxobutan-2-yl)-N3-(37-oxo-41-((3aS,4S,6aR)-2-oxohexahydro-1H-thieno[3,4-d]imidazol-4-yl)-3,6,9,12,15,18,21,24,27,30,33-undecaoxa-36-azahentetracontyl)isophthalamide], in assay [3], the EC50 fell in the range of 10 to 100 nM and the ADCC efficacy result is “+++^d (maximum signal:background > 11 = +++)”.
For the compound `CC(C)[C@@H](NC(=O)c1cccc(C(=O)NCCOCCOCCOCCOCCNC(=O)CCCC[C@@H]2SC[C@@H]3NC(=O)N[C@@H]32)c1)C(=O)N1CCC(c2ccc(Cl)cc2)CC1` [Compound 2, N1-((R)-1-(4-(4-chlorophenyl)piperidin-1-yl)-3-methyl-1-oxobutan-2-yl)-N3-(16-oxo-20-((3aS,4S,6aR)-2-oxohexahydro-1H-thieno[3,4-d]imidazol-4-yl)-3,6,9,12-tetraoxa-15-azaicosyl)isophthalamide], in assay [3], the EC50 was in the range of 100 to 1000 nM and the ADCC efficacy entry is “++^d (between 9-11 = ++)”.
For `CC(C)[C@@H](NC(=O)c1cccc(C(=O)NCCOCCOCCOCCOCCOCCOCCOCCNC(=O)CCCC[C@@H]2SC[C@@H]3NC(=O)N[C@@H]32)c1)C(=O)N1CCC(c2ccc(Cl)cc2)CC1` [Compound 3, N1-((R)-1-(4-(4-chlorophenyl)piperidin-1-yl)-3-methyl-1-oxobutan-2-yl)-N3-(25-oxo-29-((3aS,4S,6aR)-2-oxohexahydro-1H-thieno[3,4-d]imidazol-4-yl)-3,6,9,12,15,18,21-heptaoxa-24-azanonacosyl)isophthalamide] the same measures were 10 to 100 nM and “++^d (between 9-11 = ++)”.
For `CC(C)[C@@H](NC(=O)c1cccc(C(=O)NCCOCCOCCOCCOCCC(=O)NCCOCCOCCOCCOCCOCCOCCOCCOCCOCCOCCOCCNC(=O)CCCC[C@@H]2SC[C@@H]3NC(=O)N[C@@H]32)c1)C(=O)N1CCC(c2ccc(Cl)cc2)CC1` [Compound 4, N1-((R)-1-(4-(4-chlorophenyl)piperidin-1-yl)-3-methyl-1-oxobutan-2-yl)-N3-(15,53-dioxo-57-((3aS,4S,6aR)-2-oxohexahydro-1H-thieno[3,4-d]imidazol-4-yl)-3,6,9,12,19,22,25,28,31,34, 37,40,43,46,49-pentadecaoxa-16,52-diazaheptapentacontyl)isophthalamide], in that order: 100 to 1000 nM and “++^d (between 9-11 = ++)”.
Take `CC(C)[C@@H](NC(=O)c1cccc(C(=O)NCCOCCOCCOCCOCCOCCOCCOCCOCCC(=O)NCCOCCOCCOCCOCCOCCOCCOCCOCCOCCOCCOCCNC(=O)CCCC[C@@H]2SC[C@@H]3NC(=O)N[C@@H]32)c1)C(=O)N1CCC(c2ccc(Cl)cc2)CC1` [Compound 5, N1-((R)-1-(4-(4-chlorophenyl)piperidin-1-yl)-3-methyl-1-oxobutan-2-yl)-N3-(27,65-dioxo-69-((3aS,4S,6aR)-2-oxohexahydro-1H-thieno[3,4-d]imidazol-4-yl)-3,6,9,12,15,18,21,24,31,34, 37,40,43,46,49,52,55,58,61-nonadecaoxa-28,64-diazanonahexacontyl)isophthalamide]: in assay [3], the EC50 was in the range of 100 to 1000 nM and the ADCC efficacy result is “+^d (between 6-8 = +)”.
As to `O=C(NCc1ccc(C(=O)NCCCOCCOCCOCCCNc2ccc([N+](=O)[O-])cc2[N+](=O)[O-])cc1)NC[C@@H]1CN(Cc2ccc(Cl)c(Cl)c2)CCO1` [Compound 21, (R)-4-((3-((4-(3,4-dichlorobenzyl)morpholin-2-yl)methyl)ureido)methyl)-N-(3-(2-(2-(3-((2,4-dinitrophenyl)amino)propoxy)ethoxy)ethoxy)propyl)benzamide], in assay [2], the EC50 was less than 1 nM and the ADCC efficacy entry is listed as “+++^f (Maximum S:B > 20 = +++)”.
`O=C(NCc1ccc(C(=O)NCCCOCCOCCOCCCNC(=S)Nc2ccc(-c3c4ccc(=O)cc-4oc4cc(O)ccc34)c(C(=O)O)c2)cc1)NC[C@H]1CN(Cc2ccc(Cl)c(Cl)c2)CCO1` [Compound 22, (S)-5-(3-(1-(4-((3-((4-(3,4-Dichlorobenzyl)morpholin-2-yl)methyl)ureido)methyl)phenyl)-1-oxo-6,9,12-trioxa-2-azapentadecan-15-yl)thioureido)-2-(6-hydroxy-3-oxo-3H-xanthen-9-yl)benzoic acid]: in assay [2], the EC50 lay in the range of 1 to 10 nM and the ADCC efficacy result is “+++^f (Maximum S:B > 20 = +++)”.
As to `O=C(CCC(=O)N[C@H]1CC[C@H](NC(=O)c2ccc(CNC(=O)NC[C@H]3CN(Cc4ccc(Cl)c(Cl)c4)CCO3)cc2)CC1)NCCCOCCOCCOCCCNc1ccc([N+](=O)[O-])cc1[N+](=O)[O-]` [Compound 23, N1-((Trans)-4-(4-((3-(((S)-4-(3,4-Dichlorobenzyl)morpholin-2-yl)methyl)ureido)methyl)benzamido)cyclohexyl)-N4-(3-(2-(2-(3-((2,4-dinitrophenyl)amino)propoxy)ethoxy)ethoxy)propyl)succinamide], in assay [2], the EC50 was less than 1 nM and the ADCC efficacy entry was “+++^f (Maximum S:B > 20 = +++)”.
For `CCCCN1C(=O)[C@@H]([C@H](O)C2CCCCC2)NC(=O)C12CCN(Cc1ccc(Oc3ccc(C(=O)NCCOCCOCCOCCOCCOCCOCCOCCOCCOCCNC(=S)Nc4ccc5c(c4)C(=O)OC54c5ccc(O)cc5Oc5cc(O)ccc54)cc3)cc1)CC2` [Compound 25, 4-(4-(((R)-1-butyl-3-((R)-cyclohexyl(hydroxy)methyl)-2,5-dioxo-1,4,9-triazaspiro[5.5]undecan-9-yl)methyl)phenoxy)-N-(1-((3′,6′-dihydroxy-3-oxo-3H-spiro[isobenzofuran-1,9′-xanthen]-5-yl)amino)-1-thioxo-5,8,11,14,17,20,23,26,29-nonaoxa-2-azahentriacontan-31-yl)benzamide] the same measures were 1 to 10 nM and “+++^f (Maximum S:B > 20 = +++)”.
